Experimental data as given in ChEMBL document CHEMBL4334438, “Discovery of novel glycogen synthase kinase-3α inhibitors: Structure-based virtual screening, preliminary SAR and biological evaluation for treatment of acute myeloid leukemia” (Eur J Med Chem, 2019).

Columns and labels:
[1] = target: Cyclin-dependent kinase 5/CDK5 activator 1 (Homo sapiens) (UniProt Q00535+Q15078); experiment: Inhibition of recombinant full length human CDK5/p35 assessed as residual activity at 1 uM using histone H1 as substrate incubated for 40 mins in presence of [gamma-33ATP] by scintillation counting based radiometry assay relative to control; type: protein-complex assay
[2] = tested on: RAF proto-oncogene serine/threonine-protein kinase (Homo sapiens), P04049 [Y340D,Y341D]; experiment: Inhibition of recombinant human C-Raf Y340D/Y341D double mutant (306 to end residues) assessed as residual activity at 1 uM poly(Glu, Tyr) 4:1 as substrate incubated 40 mins in presence of [gamma-33ATP] by scintillation counting based radiometry assay relative to control
[3] = target: Protein kinase C beta type (Homo sapiens) (UniProt P05771); experiment: Inhibition of recombinant human PKCbeta1 (2 to end residues) assessed as residual activity at 1 uM using histone H1 as substrate measured after 40 mins in presence of [gamma33P]ATP by scintillation counting method relative to control
Homo sapiens [4] = species: Homo sapiens; experiment: Inhibition of recombinant human EphB2 A848S/K918E mutant (560 to end residues) assessed as residual activity at 1 uM using poly(Glu, Tyr) 4:1 as substrate at 40 mins in presence of [gamma-33ATP] by scintillation counting based radiometry assay relative to control
[5] = target: Protein kinase C zeta type (Homo sapiens) (UniProt Q05513); experiment: Inhibition of recombinant human PKCzeta (2 to end residues) assessed as residual activity at 1 uM using ERMRPRKRQGSVRRRV as substrate measured after 40 mins in presence of [gamma33P]ATP by scintillation counting method relative to control
[6] = target: Tyrosine-protein kinase SYK (Homo sapiens) (UniProt P43405); experiment: Inhibition of recombinant full-length human Syk at 1 uM assessed as residual activity at 1 uM using poly(Glu, Tyr) 4:1 as substrate measured after 120 mins in presence of [gamma33P]ATP by scintillation counting method relative to control
[7] = target: Glycogen synthase kinase-3 beta (Homo sapiens, UniProt P49841, H350L); experiment: Inhibition of human GSK-3beta H350L mutant (2 to end residues) at 10 uM using phospho GS2 peptide as substrate after 40 mins by [gamma-33ATP] radiometric assay
[8] = target: Maternal embryonic leucine zipper kinase (Homo sapiens) (UniProt Q14680); experiment: Inhibition of recombinant human MELK (1 to 340 residues) assessed as residual activity at 1 uM using KKLNRTLSFAEPG as substrate incubated for 40 mins in presence of [gamma-33ATP by scintillation counting based radiometry assay relative to control
[9] = tested on: Serine/threonine-protein kinase Sgk1 (Homo sapiens), O00141 [S422D]; experiment: Inhibition of recombinant human SGK S422D mutant (60 to end residues) assessed as residual activity at 1 uM using GRPRTSSFAEGKK as substrate measured after 40 mins in presence of [gamma33P]ATP by scintillation counting method relative to control
[10] = target: Protein kinase C gamma type (Homo sapiens) (UniProt P05129); experiment: Inhibition of recombinant full-length human PKCgamma assessed as residual activity at 1 uM using histone H1 as substrate measured after 40 mins in presence of [gamma33P]ATP by scintillation counting method relative to control
[11] = target: Serine/threonine-protein kinase PLK2 (Homo sapiens) (UniProt Q9NYY3); experiment: Inhibition of human Snk (65 to 409 residues) assessed as residual activity at 1 uM using casein as substrate measured after 40 mins in presence of [gamma33P]ATP by scintillation counting method relative to control
[12] = target: Leucine-rich repeat serine/threonine-protein kinase 2 (Homo sapiens) (UniProt Q5S007); experiment: Inhibition of recombinant human LRRK2 (970 to end residues) assessed as residual activity at 1 uM using RLGRDKYKTLRQIRQ as substrate after 40 mins in presence of [gamma-33ATP] by scintillation counting based radiometry assay relative to control
[13] = tested on: PI3-kinase p110-alpha/p85-alpha (Homo sapiens), P27986+P42336 [E545K]; experiment: Inhibition of recombinant full-length human PI3K p110alpha E545K mutant/p85alpha assessed as residual activity at 1 uM assessed as residual activity at 1 uM using phosphatidylinositol-4, 5-bisphosphate as substrate incubated for 40 mins in presence of [gamma33P]ATP by scintillation counting based radiometry assay relative to control; type: protein-complex assay
[14] = target: Activin receptor type-1 (Homo sapiens) (UniProt Q04771); experiment: Inhibition of human ALK2 (147 to end residues) assessed as residual activity at 1 uM using casein as substrate incubated for 40 mins in presence of [gamma-33ATP] by scintillation counting based radiometry assay relative to control
[15] = target: Serine/threonine-protein kinase PLK1 (Homo sapiens) (UniProt P53350); experiment: Inhibition of recombinant full-length human Plk1 assessed as residual activity at 1 uM using casein as substrate measured after 40 mins in presence of [gamma33P]ATP by scintillation counting method relative to control
[16] = target: Dual specificity protein kinase CLK3 (Homo sapiens) (UniProt P49761); experiment: Inhibition of recombinant full length human CLK3 assessed as residual activity at 1 uM using ERMRPRKRQGSVR as substrate incubated 40 mins in presence of [gamma-33ATP] by scintillation counting based radiometry assay relative to control
[17] = target: SRSF protein kinase 1 (Homo sapiens) (UniProt Q96SB4); experiment: Inhibition of human SRPK1 (2 to end residues) assessed as residual activity at 1 uM using RSRSRSRSRSRSRSR as substrate measured after 40 mins in presence of [gamma33P]ATP by scintillation counting method relative to control
Homo sapiens [18] = species: Homo sapiens; experiment: Inhibition of recombinant human BRSK2 S251I mutant (2 to end residues) assessed as residual activity at 1 uM using KKLNRTLSFAEPG substrate incubated for 40 mins in presence of [gamma-33ATP] by scintillation counting based radiometry assay relative to control
[19] = target: Receptor-type tyrosine-protein kinase FLT3 (Homo sapiens) (UniProt P36888); experiment: Inhibition of recombinant human FLT3 (564 to end residues) assessed as residual activity at 1 uM using EAIYAAPFAKKK as substrate at 40 mins in presence of [gamma-33ATP] by scintillation counting based radiometry assay relative to control
[20] = target: Serine/threonine-protein kinase Nek7 (Homo sapiens) (UniProt Q8TDX7); experiment: Inhibition of recombinant human NEK7 (2 to end residues) assessed as residual activity at 1 uM using FLAKSFGSPNRAYKK as substrate measured after 40 mins in presence of [gamma33P]ATP by scintillation counting method relative to control
[21] = target: Serine/threonine-protein kinase MARK2 (Homo sapiens) (UniProt Q7KZI7); experiment: Inhibition of recombinant full-length human PAR1Balpha assessed as residual activity at 1 uM using KKKVSRSGLYRSPSMPENLNRPR as substrate measured after 40 mins in presence of [gamma33P]ATP by scintillation counting method relative to control

Dual specificity protein kinase CLK3 (Homo sapiens), sequence (P49761 whole entry, looked up): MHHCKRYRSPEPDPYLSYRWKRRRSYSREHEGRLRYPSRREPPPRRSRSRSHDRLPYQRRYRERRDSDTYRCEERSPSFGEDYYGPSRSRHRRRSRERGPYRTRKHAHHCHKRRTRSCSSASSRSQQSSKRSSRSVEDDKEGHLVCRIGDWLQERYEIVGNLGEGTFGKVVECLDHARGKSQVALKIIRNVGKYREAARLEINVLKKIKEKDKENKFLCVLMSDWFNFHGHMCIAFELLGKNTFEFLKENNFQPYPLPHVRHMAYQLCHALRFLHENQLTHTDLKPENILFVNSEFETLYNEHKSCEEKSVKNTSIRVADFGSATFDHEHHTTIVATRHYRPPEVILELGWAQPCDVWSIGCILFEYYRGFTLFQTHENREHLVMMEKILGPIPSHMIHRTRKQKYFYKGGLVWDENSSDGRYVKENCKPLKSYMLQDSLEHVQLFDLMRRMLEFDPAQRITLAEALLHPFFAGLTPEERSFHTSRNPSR
Activin receptor type-1 (Homo sapiens), sequence (Q04771 whole entry): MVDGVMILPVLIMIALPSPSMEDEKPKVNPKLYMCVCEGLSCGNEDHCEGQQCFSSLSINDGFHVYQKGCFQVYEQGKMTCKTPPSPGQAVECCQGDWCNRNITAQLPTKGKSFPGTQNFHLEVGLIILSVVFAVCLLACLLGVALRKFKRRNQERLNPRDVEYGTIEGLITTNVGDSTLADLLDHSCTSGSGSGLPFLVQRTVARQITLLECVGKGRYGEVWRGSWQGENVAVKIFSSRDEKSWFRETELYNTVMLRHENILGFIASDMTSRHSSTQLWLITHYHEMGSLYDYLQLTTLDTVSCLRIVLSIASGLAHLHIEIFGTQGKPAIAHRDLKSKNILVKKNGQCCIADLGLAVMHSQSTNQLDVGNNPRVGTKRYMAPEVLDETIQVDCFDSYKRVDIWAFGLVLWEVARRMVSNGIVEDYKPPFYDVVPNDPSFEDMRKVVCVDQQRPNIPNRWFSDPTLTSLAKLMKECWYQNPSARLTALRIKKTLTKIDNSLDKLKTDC
Serine/threonine-protein kinase PLK2 (Homo sapiens), sequence (Q9NYY3 whole entry, looked up, the tested form may be a part): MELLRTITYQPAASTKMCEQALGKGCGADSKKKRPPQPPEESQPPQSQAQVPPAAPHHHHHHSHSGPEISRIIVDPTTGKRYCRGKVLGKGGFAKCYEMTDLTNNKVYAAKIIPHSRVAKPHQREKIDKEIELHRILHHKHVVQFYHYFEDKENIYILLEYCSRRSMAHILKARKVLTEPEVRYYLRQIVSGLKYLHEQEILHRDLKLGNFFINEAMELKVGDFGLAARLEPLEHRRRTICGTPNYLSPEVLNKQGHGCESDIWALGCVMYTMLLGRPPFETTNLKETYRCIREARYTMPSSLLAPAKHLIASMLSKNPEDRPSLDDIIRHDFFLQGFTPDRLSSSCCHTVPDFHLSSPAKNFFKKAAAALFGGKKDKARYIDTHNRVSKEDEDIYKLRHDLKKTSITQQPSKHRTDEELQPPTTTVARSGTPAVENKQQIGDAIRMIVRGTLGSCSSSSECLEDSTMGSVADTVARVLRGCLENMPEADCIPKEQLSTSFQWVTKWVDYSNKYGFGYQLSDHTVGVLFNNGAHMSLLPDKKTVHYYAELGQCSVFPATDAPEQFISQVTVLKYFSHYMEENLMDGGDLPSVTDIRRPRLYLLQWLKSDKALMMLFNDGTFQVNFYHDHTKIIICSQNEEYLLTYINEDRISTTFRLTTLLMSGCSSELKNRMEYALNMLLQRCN
Serine/threonine-protein kinase Nek7 (Homo sapiens), sequence (Q8TDX7 whole entry, looked up): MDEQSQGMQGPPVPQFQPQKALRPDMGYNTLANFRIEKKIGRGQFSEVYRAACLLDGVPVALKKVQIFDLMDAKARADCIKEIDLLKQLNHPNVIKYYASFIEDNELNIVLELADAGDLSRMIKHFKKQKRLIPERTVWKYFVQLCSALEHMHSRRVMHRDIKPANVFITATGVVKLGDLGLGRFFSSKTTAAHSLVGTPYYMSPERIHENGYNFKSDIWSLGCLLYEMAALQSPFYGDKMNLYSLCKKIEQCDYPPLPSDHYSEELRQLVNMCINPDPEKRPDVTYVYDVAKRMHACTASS
Maternal embryonic leucine zipper kinase (Homo sapiens), sequence (Q14680 whole entry, looked up, the tested form may be a part): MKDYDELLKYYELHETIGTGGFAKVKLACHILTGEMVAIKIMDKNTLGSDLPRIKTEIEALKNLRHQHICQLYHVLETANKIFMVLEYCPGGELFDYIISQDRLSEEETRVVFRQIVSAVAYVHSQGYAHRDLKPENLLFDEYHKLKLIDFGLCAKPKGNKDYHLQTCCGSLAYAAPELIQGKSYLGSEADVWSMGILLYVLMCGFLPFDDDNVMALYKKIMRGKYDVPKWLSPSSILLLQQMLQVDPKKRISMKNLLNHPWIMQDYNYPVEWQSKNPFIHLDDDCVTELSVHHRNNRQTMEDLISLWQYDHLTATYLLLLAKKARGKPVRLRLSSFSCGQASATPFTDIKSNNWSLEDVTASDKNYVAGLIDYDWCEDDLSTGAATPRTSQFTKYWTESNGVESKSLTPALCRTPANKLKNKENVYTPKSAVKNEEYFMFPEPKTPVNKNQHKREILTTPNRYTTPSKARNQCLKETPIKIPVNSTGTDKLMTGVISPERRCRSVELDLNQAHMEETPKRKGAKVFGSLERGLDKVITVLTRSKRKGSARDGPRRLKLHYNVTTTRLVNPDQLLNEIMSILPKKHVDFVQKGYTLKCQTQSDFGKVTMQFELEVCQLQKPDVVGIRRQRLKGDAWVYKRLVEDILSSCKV
Serine/threonine-protein kinase PLK1 (Homo sapiens), sequence (P53350 whole entry): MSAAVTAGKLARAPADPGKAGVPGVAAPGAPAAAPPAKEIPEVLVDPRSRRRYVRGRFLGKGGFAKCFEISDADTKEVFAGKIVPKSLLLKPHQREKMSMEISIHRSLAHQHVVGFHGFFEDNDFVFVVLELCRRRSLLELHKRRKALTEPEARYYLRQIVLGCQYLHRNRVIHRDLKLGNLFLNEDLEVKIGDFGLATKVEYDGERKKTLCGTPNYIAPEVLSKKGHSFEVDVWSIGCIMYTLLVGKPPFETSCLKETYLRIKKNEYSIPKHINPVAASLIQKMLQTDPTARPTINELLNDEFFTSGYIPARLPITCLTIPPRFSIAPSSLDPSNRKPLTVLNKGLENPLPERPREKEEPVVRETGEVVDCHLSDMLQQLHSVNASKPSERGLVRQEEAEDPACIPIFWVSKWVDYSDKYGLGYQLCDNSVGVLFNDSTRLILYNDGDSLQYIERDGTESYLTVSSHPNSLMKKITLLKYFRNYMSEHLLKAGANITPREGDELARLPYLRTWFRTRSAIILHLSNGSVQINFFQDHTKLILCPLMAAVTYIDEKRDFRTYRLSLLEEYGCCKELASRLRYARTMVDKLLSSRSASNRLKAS
Cyclin-dependent kinase 5/CDK5 activator 1 (Homo sapiens), sequence (Q00535 whole entry): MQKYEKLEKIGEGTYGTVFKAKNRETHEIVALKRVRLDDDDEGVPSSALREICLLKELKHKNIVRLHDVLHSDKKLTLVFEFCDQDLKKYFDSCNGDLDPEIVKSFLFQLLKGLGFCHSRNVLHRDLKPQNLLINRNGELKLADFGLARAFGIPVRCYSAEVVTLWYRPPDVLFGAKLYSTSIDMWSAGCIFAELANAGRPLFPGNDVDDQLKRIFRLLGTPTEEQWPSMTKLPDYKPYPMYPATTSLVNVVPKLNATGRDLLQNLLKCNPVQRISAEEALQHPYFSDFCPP
Cyclin-dependent kinase 5/CDK5 activator 1 (Homo sapiens), sequence (Q15078 99-307 partner limits assumed): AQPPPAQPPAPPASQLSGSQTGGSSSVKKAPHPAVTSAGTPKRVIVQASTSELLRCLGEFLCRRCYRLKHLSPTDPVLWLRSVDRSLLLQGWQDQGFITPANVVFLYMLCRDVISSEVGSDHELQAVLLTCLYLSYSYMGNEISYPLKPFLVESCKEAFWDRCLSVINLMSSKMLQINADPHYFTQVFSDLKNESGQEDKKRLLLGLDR
Glycogen synthase kinase-3 beta, sequence (P49841 whole entry, looked up, stated change not applied, the tested form may be a part): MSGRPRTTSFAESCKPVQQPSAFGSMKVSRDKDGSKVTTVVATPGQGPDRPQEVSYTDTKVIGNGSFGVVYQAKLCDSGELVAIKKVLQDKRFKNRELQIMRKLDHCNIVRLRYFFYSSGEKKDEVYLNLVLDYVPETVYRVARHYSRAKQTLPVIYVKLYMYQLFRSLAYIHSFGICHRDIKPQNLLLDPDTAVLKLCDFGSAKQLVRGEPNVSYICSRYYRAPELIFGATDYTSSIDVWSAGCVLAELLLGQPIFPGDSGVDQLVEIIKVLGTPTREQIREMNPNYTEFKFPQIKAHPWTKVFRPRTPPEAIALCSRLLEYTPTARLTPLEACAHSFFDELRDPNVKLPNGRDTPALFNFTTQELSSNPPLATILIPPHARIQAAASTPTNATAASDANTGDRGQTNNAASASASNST
SRSF protein kinase 1 (Homo sapiens), sequence (Q96SB4 whole entry): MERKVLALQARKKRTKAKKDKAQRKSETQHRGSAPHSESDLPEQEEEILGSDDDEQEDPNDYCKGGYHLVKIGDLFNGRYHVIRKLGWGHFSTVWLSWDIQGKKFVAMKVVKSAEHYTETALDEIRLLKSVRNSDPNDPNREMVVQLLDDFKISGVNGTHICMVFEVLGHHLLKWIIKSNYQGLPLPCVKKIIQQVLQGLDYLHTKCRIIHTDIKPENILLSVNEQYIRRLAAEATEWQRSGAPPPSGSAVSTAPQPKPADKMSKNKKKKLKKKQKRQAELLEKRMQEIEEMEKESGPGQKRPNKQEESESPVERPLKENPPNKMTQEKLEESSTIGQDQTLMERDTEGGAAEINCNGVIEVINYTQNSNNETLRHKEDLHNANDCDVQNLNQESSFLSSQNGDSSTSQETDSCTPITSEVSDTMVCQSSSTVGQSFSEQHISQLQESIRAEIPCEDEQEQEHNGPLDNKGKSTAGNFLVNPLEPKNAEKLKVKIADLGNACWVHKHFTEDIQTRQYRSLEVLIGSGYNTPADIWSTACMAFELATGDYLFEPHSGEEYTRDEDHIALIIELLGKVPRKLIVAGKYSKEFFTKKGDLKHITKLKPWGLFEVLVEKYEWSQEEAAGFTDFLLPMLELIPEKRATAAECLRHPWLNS

Row | Compound | Activity [1] [%] | Activity [2] [%] | Activity [3] [%] | Activity (Homo sapiens [4]) [%] | Activity [5] [%] | Activity [6] [%] | IC50 [7] [nM] | Activity [8] [%] | Activity [9] [%] | Activity [10] [%] | Activity [11] [%] | Activity [12] [%] | Activity [13] [%] | Activity [14] [%] | Activity [15] [%] | Activity [16] [%] | Activity [17] [%] | Activity (Homo sapiens [18]) [%] | Activity [19] [%] | Activity [20] [%] | other results
1 | C=CCOC(=O)c1cc(-c2ccc(/C=C3/NC(=S)NC3=O)o2)ccc1Cl | 73 | 85 | 113 | 140 | 96 | 82 | 218 | 105 | 91 | 104 | 91 | 100 | 92 | 105 | 103 | 85 | 104 | 71 | 108 | 98 | Activity [21]: 95%
2 | N=C1NC(=O)/C(=C\c2ccc(-c3cccc([N+](=O)[O-])c3)o2)S1 | 53 | 98 | 100 | 96 | 108 | 93 | 110 | 89 | 98 | 105 | 92 | 99 | 100 | 101 | 99 | 92 | 94 | 42 | 90 | 107 | Activity [21]: 105%
